Experimental data published in patent publication US20090143279A1 (priority 2007, published 2009).
Read-outs that look alike come from different tables or passages of the source.

Experiments:
cytochrome c = format: cell-based, mouse; conditions: for cyt c (composite Z-score): normalized score vs mock-treated (DMSO) wells
nuOXPHOS transcripts = format: cell-based, mouse; conditions: for nucOX (composite Z-score): normalized score vs mock-treated (DMSO) wells
reactive oxygen species = format: cell-based, mouse; conditions: for ROS (composite Z-score): normalized score vs mock-treated (DMSO) wells
C2C12 myotubes = conditions: for Viability (composite Z-score): normalized score vs mock-treated (DMSO) wells
[1] = test system: cellular dehydrogenase activity; conditions: for MTT (composite Z-score): normalized score vs mock-treated (DMSO) wells
mtOXPHOS transcripts = format: cell-based, mouse; conditions: for mitoOX (composite Z-score): normalized score vs mock-treated (DMSO) wells
[2] = test system: mitochondrial membrane potential; format: cell-based, mouse; conditions: for ΔΨm (composite Z-score): normalized score vs mock-treated (DMSO) wells
OXPHOS gene expression = format: cell-based, mouse; conditions: for GE-HTS (composite Z-score): normalized score vs mock-treated (DMSO) wells
[3] = 20 μM, composite Z-score vs DMSO
[4] = normalized composite Z-score vs mock-treated (DMSO) wells, Conc 20 μM
[5] = composite Z-score vs mock-treated (DMSO) wells, Conc 20 μM
[6] = composite Z-score vs DMSO wells, Conc 20 μM
[7] = composite Z-score vs DMSO, Conc 20 μM
[8] = 10.86 μM, composite Z-score vs DMSO

Compound: C=C[C@H]1CN2CC[C@H]1C[C@H]2[C@H](OC(=O)OCC)c1ccnc2ccc(OC)cc12 [quinine ethyl carbonate]
- cyt c (cytochrome c; [3]): 0.822
- nucOX (nuOXPHOS transcripts; [3]): −1.003
- ROS (reactive oxygen species; [3]): 0.401
- Viability (C2C12 myotubes; [3]): −0.167
- MTT [1, 3]: −0.071
- mitoOX (mtOXPHOS transcripts; [3]): −1.297
- ΔΨm [2, 3]: −0.661
- GE-HTS (OXPHOS gene expression; [3]): −1.190

Compound: CC1COc2c(N3CCN(C)CC3)c(F)cc3c(=O)c(C(=O)O)cn1c23 (stereo not drawn) [ofloxacin]
- cyt c (cytochrome c): 0.492
- cyt c (cytochrome c; [3]): 0.309
- nucOX (nuOXPHOS transcripts): 0.059
- nucOX (nuOXPHOS transcripts; [3]): −0.622
- ROS (reactive oxygen species): 0.908
- ROS (reactive oxygen species; [3]): −0.182
- Viability (C2C12 myotubes): −0.425
- Viability (C2C12 myotubes; [3]): −1.148
- MTT [1]: −0.967
- MTT [1, 3]: −1.248
- mitoOX (mtOXPHOS transcripts): 0.353
- mitoOX (mtOXPHOS transcripts; [3]): −0.041
- ΔΨm [2]: −0.891
- ΔΨm [2, 3]: −0.281
- GE-HTS (OXPHOS gene expression): 0.182
- GE-HTS (OXPHOS gene expression; [3]): −0.458

Compound: C[C@@H]1CC[C@H]2[C@](C)(CO)[C@@H](O)CC[C@]2(C)[C@@]12CC[C@@](CO)(CCO)O2 [lagochilin]
- cyt c (composite Z-score) (cytochrome c; Conc 20 μM): −0.862
- nucOX (composite Z-score) (nuOXPHOS transcripts; Conc 20 μM): −0.036
- ROS (composite Z-score) (reactive oxygen species; Conc 20 μM): 0.962
- Viability (composite Z-score) (C2C12 myotubes; Conc 20 μM): 0.043
- MTT (composite Z-score) ([1]; Conc 20 μM): −0.238
- mitoOX (composite Z-score) (mtOXPHOS transcripts; Conc 20 μM): 0.128
- ΔΨm (composite Z-score) ([2]; Conc 20 μM): 0.277
- GE-HTS (composite Z-score) (OXPHOS gene expression; Conc 20 μM): 0.002

Compound: CC[C@H](C)[C@H](NC)C(=O)O [N-methylisoleucine]
- cyt c (cytochrome c): −0.451
- nucOX (nuOXPHOS transcripts): 0.676
- ROS (reactive oxygen species): 0.300
- Viability (C2C12 myotubes): 1.026
- MTT [1]: 0.372
- mitoOX (mtOXPHOS transcripts): 0.850
- ΔΨm [2]: −0.210
- GE-HTS (OXPHOS gene expression): 0.772

Compound: CC1=CC(=O)C2=C(C)CC[C@@H]3[C@H](OC(=O)[C@H]3C)[C@@H]12 [leucomisine]
- cyt c (composite Z-score) (cytochrome c; Conc 16.24 μM): −0.568
- nucOX (composite Z-score) (nuOXPHOS transcripts; Conc 16.24 μM): −0.405
- ROS (composite Z-score) (reactive oxygen species; Conc 16.24 μM): 0.368
- Viability (composite Z-score) (C2C12 myotubes; Conc 16.24 μM): −0.439
- MTT (composite Z-score) ([1]; Conc 16.24 μM): −1.034
- mitoOX (composite Z-score) (mtOXPHOS transcripts; Conc 16.24 μM): −0.470
- ΔΨm (composite Z-score) ([2]; Conc 16.24 μM): 0.151
- GE-HTS (composite Z-score) (OXPHOS gene expression; Conc 16.24 μM): −0.450

Compound: OC[C@H]1O[C@@](CO)(O[C@H]2O[C@H](CO)[C@@H](O)[C@H](O)[C@H]2O)[C@@H](O[C@H]2O[C@H](CO)[C@@H](O)[C@H](O)[C@H]2O)[C@@H]1O [melezitose]
- cyt c (cytochrome c; [4]): 0.284
- nucOX (nuOXPHOS transcripts; [4]): 0.054
- ROS (reactive oxygen species; [4]): −0.125
- Viability (C2C12 myotubes; [4]): −0.843
- MTT [1, 4]: −0.968
- mitoOX (mtOXPHOS transcripts; [4]): −1.553
- ΔΨm [2, 4]: −0.605
- GE-HTS (OXPHOS gene expression; [4]): −0.502

Compound: Cc1cc(=O)c2c(O)c(C)c(O)cc2o1 [eugenitol]
- cyt c (cytochrome c; [5]): −0.041
- nucOX (nuOXPHOS transcripts; [5]): 0.168
- ROS (reactive oxygen species; [5]): 1.256
- Viability (C2C12 myotubes; [5]): −0.575
- MTT [1, 5]: −1.139
- mitoOX (mtOXPHOS transcripts; [5]): 0.962
- ΔΨm [2, 5]: −0.541
- GE-HTS (OXPHOS gene expression; [5]): 0.471

Compound: [O-][n+]1ccccc1[S-].[O-][n+]1ccccc1[S-].[Zn+2] [pyrithione zinc]
- cyt c (composite Z-score vs DMSO) (cytochrome c): −4.773
- nucOX (composite Z-score vs DMSO) (nuOXPHOS transcripts): −4.140
- ROS (composite Z-score vs DMSO) (reactive oxygen species): −2.405
- Viability (composite Z-score vs DMSO) (C2C12 myotubes): −5.339
- MTT (composite Z-score vs DMSO) [1]: −6.284
- mitoOX (composite Z-score vs DMSO) (mtOXPHOS transcripts): −0.770
- ΔΨm (composite Z-score vs DMSO) [2]: −3.529
- GE-HTS (composite Z-score vs DMSO) (OXPHOS gene expression): −3.250

Compound: Cc1c(N(C)CS(=O)(=O)[O-])c(=O)n(-c2ccccc2)n1C.[Na+] [dipyrone]
- cyt c (cytochrome c): 0.356
- cyt c (cytochrome c; [6]): 0.337
- nucOX (nuOXPHOS transcripts; [6]): −0.930
- ROS (reactive oxygen species): −0.683
- ROS (reactive oxygen species; [6]): −1.148
- Viability (C2C12 myotubes): −0.607
- Viability (C2C12 myotubes; [6]): −0.809
- MTT [1]: −1.243
- MTT [1, 6]: −1.908
- mitoOX (mtOXPHOS transcripts; [6]): −0.820
- ΔΨm [2]: −0.738
- ΔΨm [2, 6]: −0.760
- GE-HTS (OXPHOS gene expression; [6]): −0.955

Compound: CC(C)=CCc1c2c(c(O)c3c(=O)c(O)c(-c4ccccc4)oc13)C=CC(C)(C)O2 [sericetin]
- cyt c (cytochrome c; [4]): −0.335
- nucOX (nuOXPHOS transcripts; [4]): −0.670
- ROS (reactive oxygen species; [4]): 0.124
- Viability (C2C12 myotubes; [4]): −0.783
- MTT [1, 4]: −1.507
- mitoOX (mtOXPHOS transcripts; [4]): −1.132
- ΔΨm [2, 4]: 6.788
- GE-HTS (OXPHOS gene expression; [4]): −0.890

Compound: CC(=O)c1cc(CC=C(C)C)c(O)c(CC=C(C)C)c1 [3,5-diprenyl-4-hydroxyacetophenone]
- cyt c (cytochrome c; [7]): −0.220
- nucOX (nuOXPHOS transcripts; [7]): −0.036
- ROS (reactive oxygen species; [7]): 1.014
- Viability (C2C12 myotubes; [7]): −0.293
- MTT [1, 7]: −0.582
- mitoOX (mtOXPHOS transcripts; [7]): 0.538
- ΔΨm [2, 7]: −0.022
- GE-HTS (OXPHOS gene expression; [7]): 0.149

Compound: CC1(C)CC[C@]2(C(=O)O)CC[C@]3(C)C(=CC[C@@H]4[C@@]5(C)CC[C@H](O)C(C)(C)[C@@H]5CC[C@]43C)[C@@H]2C1 [oleanoic acid]
- cyt c (cytochrome c; [5]): 0.754
- nucOX (nuOXPHOS transcripts; [5]): −1.408
- ROS (reactive oxygen species; [5]): −0.144
- Viability (C2C12 myotubes; [5]): 0.492
- MTT [1, 5]: −0.720
- mitoOX (mtOXPHOS transcripts; [5]): −1.014
- ΔΨm [2, 5]: −0.910
- GE-HTS (OXPHOS gene expression; [5]): −1.379

Compound: CCN1CCN(C(=O)N[C@@H](C(=O)N[C@@H]2C(=O)N3[C@@H]2SC(C)(C)[C@@H]3C(=O)O)c2ccccc2)C(=O)C1=O [piperacillin]
- cyt c (cytochrome c; [7]): 0.544
- nucOX (nuOXPHOS transcripts; [7]): −0.339
- ROS (reactive oxygen species; [7]): 0.645
- Viability (C2C12 myotubes; [7]): −0.990
- MTT [1, 7]: −1.188
- mitoOX (mtOXPHOS transcripts; [7]): −0.857
- ΔΨm [2, 7]: −0.150
- GE-HTS (OXPHOS gene expression; [7]): −0.548

Compound: CCCC(=O)O[C@]1(C(=O)CO)CC[C@H]2[C@@H]3CCC4=CC(=O)CC[C@]4(C)[C@H]3[C@@H](O)C[C@@]21C [hydrocortisone butyrate]
- cyt c (cytochrome c; [3]): −0.064
- nucOX (nuOXPHOS transcripts; [3]): 0.514
- ROS (reactive oxygen species; [3]): 1.234
- Viability (C2C12 myotubes; [3]): −1.654
- MTT [1, 3]: −0.932
- mitoOX (mtOXPHOS transcripts; [3]): 0.916
- ΔΨm [2, 3]: −0.808
- GE-HTS (OXPHOS gene expression; [3]): 0.666

Compound: Cc1cc(O)cc(C)c1Cl [chloroxylenol]
- cyt c (cytochrome c; [3]): 0.499
- nucOX (nuOXPHOS transcripts; [3]): −0.857
- ROS (reactive oxygen species; [3]): 2.165
- Viability (C2C12 myotubes; [3]): −0.639
- MTT [1, 3]: −2.046
- mitoOX (mtOXPHOS transcripts; [3]): −0.614
- ΔΨm [2, 3]: −0.917
- GE-HTS (OXPHOS gene expression; [3]): −0.811

Compound: COc1cc2c(c(OC)c1OC)-c1ccc(=O)c(O)cc1[C@@H](NC(C)=O)CC2 [colchiceine]
- cyt c (cytochrome c; [7]): −0.908
- nucOX (nuOXPHOS transcripts; [7]): 1.935
- ROS (reactive oxygen species; [7]): 0.469
- Viability (C2C12 myotubes; [7]): −0.333
- MTT [1, 7]: −3.186
- mitoOX (mtOXPHOS transcripts; [7]): 1.192
- ΔΨm [2, 7]: −0.812
- GE-HTS (OXPHOS gene expression; [7]): 1.832

Compound: CC(C)[N+](C)(CCOC(=O)C1c2ccccc2Oc2ccccc21)C(C)C [propantheline]
- cyt c (cytochrome c; [8]): −0.615
- cyt c (cytochrome c; [3]): 0.379
- nucOX (nuOXPHOS transcripts; [8]): 0.104
- nucOX (nuOXPHOS transcripts; [3]): 0.254
- ROS (reactive oxygen species; [8]): 0.589
- ROS (reactive oxygen species; [3]): 2.062
- Viability (C2C12 myotubes; [8]): −0.361
- Viability (C2C12 myotubes; [3]): 0.142
- MTT [1, 8]: −1.670
- MTT [1, 3]: −1.026
- mitoOX (mtOXPHOS transcripts; [8]): −1.055
- mitoOX (mtOXPHOS transcripts; [3]): 0.783
- ΔΨm [2, 8]: −0.893
- ΔΨm [2, 3]: −0.082
- GE-HTS (OXPHOS gene expression; [8]): −0.301
- GE-HTS (OXPHOS gene expression; [3]): 0.458

Compound: C=CC(C1=CC(=O)C(OC)=CC1=O)c1ccc(OC)cc1 (stereo not drawn) [4,4′-dimethoxydalbergione]
- cyt c (cytochrome c; [5]): −1.432
- nucOX (nuOXPHOS transcripts; [5]): −0.677
- ROS (reactive oxygen species; [5]): −0.802
- Viability (C2C12 myotubes; [5]): −0.207
- MTT [1, 5]: −2.648
- mitoOX (mtOXPHOS transcripts; [5]): −0.975
- ΔΨm [2, 5]: −0.993
- GE-HTS (OXPHOS gene expression; [5]): −0.842
